≈ marks a conversion by molar mass, not a printed value. Like-named read-outs stand apart in the source and are kept apart here.

Consider 4 compounds from patent publication US4698352A, “4-oxo-1,4-dihydronicotinic acid derivatives, salts thereof, and antibacterial agents containing the same” (Toyama Chemical Co., Ltd., priority 1982, dated 1987).

Common to all, as to experiment: Antibacterial activity (MIC), agar dilution
Common to all, as to type: cell-based

The test system of assay [1] is Aci. antitratus A-6. The following applies: 20 h, Aci. antitratus A-6; 10^6 cells per ml; 37° C., 20 hours; read-out: MIC. The source says: (§1) The amount of bacteria inoculated was 10^4 cells per plate (10^6 cells per ml).
In assay [2] the test system is E. coli NIHJ JC-2. The following applies: Escherichia coli, NIHJJC2, 20 h, E. coli NIHJ JC-2; 10^6 cells per ml; 37° C., 20 hours; read-out: MIC.
From the text: as §1

Assay [3] deals with E. coli TK-111. Conditions: Escherichia coli, TK111, 20 h, E. coli TK-111; 10^6 cells per ml; 37° C., 20 hours; read-out: MIC.
From the text: as §1

Assay [4] relates to Ent. cloacae IID977. The following applies: Enterobacter cloacae, IID977, 20 h.
From the text: as §1

Assay [5] has as its system Kl. pneumoniae Y-41. Conditions: Klebsiella pneumoniae, Y41, 10^6 cells per ml, 37° C., 20 hours, read-out: MIC.
From the text: as §1

For assay [6], the system named is Kl. pneumoniae Y-50. The following applies: Klebsiella pneumoniae, Y50, 20 h, 10^6 cells per ml, 37° C., read-out: MIC.
From the text: as §1

The subject of assay [7] is Pro. mirabilis T-111. Conditions: Proteus mirabilis, 37° C.
From the text: as §1

Assay [8] deals with Pro. morganii T-216. Conditions: Morganella morganii, 37° C.
From the text: as §1

Assay [9] relates to Pro. vulgaris GN3027. Conditions: Proteus vulgaris, GN3027, 20 h, Pro. vulgaris GN3027; 10^6 cells per ml; 37° C., 20 hours; read-out: MIC.
From the text: as §1

Assay [10] deals with Ps. aeruginosa IFO3445. The following applies: Pseudomonas aeruginosa.
From the text: as §1

For assay [11], the system named is Ps. aeruginosa S-68. The following applies: Pseudomonas aeruginosa.
From the text: as §1

Assay [12] concerns St. aureus FDA209P. Conditions: Staphylococcus aureus, FDA209P, 20 h.
From the text: as §1

For assay [13], the system named is E. coli TK-3*. The following applies: Escherichia coli, 20 h, E. coli TK-3, penicillinase-producing; 10^6 cells per ml; read-out: MIC.
From the text: as §1
(§2) * Penicillinase-producing bacteria

Assay [14] relates to Kl. pneumoniae Y-4*. Conditions: Klebsiella pneumoniae, 20 h, Kl. pneumoniae Y-4, penicillinase-producing; 10^6 cells per ml; read-out: MIC.
From the text: as §1, §2

Assay [15] has as its system Ps. aeruginosa GN3379*. Conditions: Pseudomonas aeruginosa, Ps. aeruginosa GN3379, penicillinase-producing, 10^6 cells per ml.
From the text: as §1, §2

The test system of assay [16] is St. aureus F-137*. Conditions: Staphylococcus aureus, 20 h.
From the text: as §1, §2

The subject of assay [17] is E. coli GN5482**. The following applies: Escherichia coli, 20 h; E. coli GN5482, cephalospolinase-producing; 10^6 cells per ml; read-out: MIC.
From the text: as §1
(§3) ** Cephalospolinase-producing bacteria

For assay [18], the system named is Pro. vulgaris GN76**. Conditions: Proteus vulgaris, 20 h; Pro. vulgaris GN76, cephalospolinase-producing; 10^6 cells per ml; read-out: MIC.
From the text: as §1, §3

For assay [19], the system named is Ps. aeruginosa GN918**. The following applies: Pseudomonas aeruginosa, 20 h; Ps. aeruginosa GN918, cephalospolinase-producing; 10^6 cells per ml; read-out: MIC.
From the text: as §1, §3

[20] abbreviates: T216, 10^6 cells per ml, 20 hours, read-out: MIC.
Where [21] appears, read: St. aureus FDA209P, 10^6 cells per ml, 37° C., 20 hours, read-out: MIC.
Setting [22] is: St. aureus F-137, penicillinase-producing, 10^6 cells per ml, read-out: MIC.
Where [23] appears, read: Ent. cloacae IID977, 10^6 cells per ml, 37° C., 20 hours, read-out: MIC.
[24] abbreviates: T111, 10^6 cells per ml, 20 hours, read-out: MIC.
Where [25] appears, read: Ps. aeruginosa IFO3445, 10^6 cells per ml, 37° C., 20 hours, read-out: MIC.

Usually MIC stands for the smallest concentration in the dilution series that meets the test's criterion for growth inhibition. For `CC(=O)Oc1ccc(-n2cc(C(=O)O)c(=O)cc2-c2ccc(N(C)C)cc2)cc1`, the MIC in assay [1] was 0.2 µg/mL (≈ 0.51 µM); in [2], 0.2 µg/mL (≈ 0.51 µM); in assay [3] it was not above 0.05 µg/mL; in [4], 1.56 µg/mL (≈ 3.98 µM); in assay [5], 1.56 µg/mL (≈ 3.98 µM); in assay [6] it was 0.39 µg/mL (≈ 0.994 µM). Moreover, the MIC in assay [7] (T111, 20 h, 10^6 cells per ml) was 3.13 µg/mL (≈ 7.98 µM); in [8] (setting [20]), 0.78 µg/mL (≈ 1.99 µM); in [9], 0.1 µg/mL (≈ 0.255 µM); in [10] (IFO3445, 20 h), 3.13 µg/mL (≈ 7.98 µM); in assay [11] (S68, 20 h), 3.13 µg/mL (≈ 7.98 µM); in assay [12] (setting [21]), 0.1 µg/mL (≈ 0.255 µM). Further, the MIC in assay [13] was 0.39 µg/mL (≈ 0.994 µM); in assay [14], 3.13 µg/mL (≈ 7.98 µM); in assay [15] (GN3379, 20 h), 3.13 µg/mL (≈ 7.98 µM); in assay [16] (setting [22]) it was 0.1 µg/mL (≈ 0.255 µM); in assay [17] it was not above 0.05 µg/mL; in assay [18], 0.39 µg/mL (≈ 0.994 µM). Further, the MIC in [19] is 0.78 µg/mL (≈ 1.99 µM).
Regarding `O=C(O)c1cn(-c2ccc(O)cc2)c(-c2ccc(-c3ccccc3)cc2)cc1=O`, the MIC in assay [1] is 0.39 µg/mL (≈ 1.02 µM); in assay [2] it was 0.39 µg/mL (≈ 1.02 µM); in assay [3], 0.1 µg/mL (≈ 0.261 µM); in [4] (setting [23]) it was 3.13 µg/mL (≈ 8.16 µM); in [5], 12.5 µg/mL (≈ 32.6 µM); in assay [6], 0.39 µg/mL (≈ 1.02 µM). Besides, the MIC in assay [7] (setting [24]) was 3.13 µg/mL (≈ 8.16 µM); in assay [8] (setting [20]), 1.56 µg/mL (≈ 4.07 µM); in [9], 0.2 µg/mL (≈ 0.522 µM); in assay [10] (setting [25]), 25 µg/mL (≈ 65.2 µM); in assay [11] (S68, 20 h), 12.5 µg/mL (≈ 32.6 µM); in assay [12] (setting [21]), not above 0.05 µg/mL. Moreover, the MIC in assay [13] is 0.78 µg/mL (≈ 2.03 µM); in assay [14], 12.5 µg/mL (≈ 32.6 µM); in [15] (20 h, read-out: MIC) it was 100 µg/mL (≈ 261 µM); in assay [16] (setting [22]), not above 0.05 µg/mL; in assay [17], not above 0.05 µg/mL; in [18], 0.78 µg/mL (≈ 2.03 µM). In assay [19], the MIC came out at 1.56 µg/mL (≈ 4.07 µM).
On to `Cc1ccc(-c2cc(=O)c(C(=O)O)cn2-c2ccc(O)cc2)s1`, for which the MIC in assay [1] is 0.39 µg/mL (≈ 1.19 µM); in assay [2], 0.2 µg/mL (≈ 0.611 µM); in assay [3], not above 0.05 µg/mL; in [4] (setting [23]), 0.78 µg/mL (≈ 2.38 µM); in assay [5], 0.78 µg/mL (≈ 2.38 µM); in assay [6], 0.2 µg/mL (≈ 0.611 µM). Further, the MIC was 3.13 µg/mL (≈ 9.56 µM) in assay [7] (setting [24]); 0.39 µg/mL (≈ 1.19 µM) in assay [8] (setting [20]); not above 0.05 µg/mL in [9]; 3.13 µg/mL (≈ 9.56 µM) in [10] (setting [25]); 3.13 µg/mL (≈ 9.56 µM) in assay [11] (S68, Ps. aeruginosa S-68, 10^6 cells per ml, 37° C., 20 hours, read-out: MIC); 0.2 µg/mL (≈ 0.611 µM) in [12] (setting [21]). For the same compound, the MIC is 0.2 µg/mL (≈ 0.611 µM) in assay [13]; 1.56 µg/mL (≈ 4.77 µM) in assay [14]; 3.13 µg/mL (≈ 9.56 µM) in assay [15] (20 h, read-out: MIC); 0.2 µg/mL (≈ 0.611 µM) in [16] (setting [22]); not above 0.05 µg/mL in assay [17]; 0.2 µg/mL (≈ 0.611 µM) in assay [18]. For the same compound, in assay [19], the MIC amounted to 0.78 µg/mL (≈ 2.38 µM).
`O=C(O)c1cn(-c2ccc(O)cc2)c(-c2ccc3cccnc3c2)cc1=O`: the MIC was determined as 25 µg/mL (≈ 69.8 µM) in assay [1]; 0.78 µg/mL (≈ 2.18 µM) in [2]; 0.39 µg/mL (≈ 1.09 µM) in assay [3]; 3.13 µg/mL (≈ 8.73 µM) in assay [4] (setting [23]); 6.25 µg/mL (≈ 17.4 µM) in [5]; 1.56 µg/mL (≈ 4.35 µM) in assay [6]. For the same compound, the MIC in [7] (setting [24]) worked out at 25 µg/mL (≈ 69.8 µM); in [8] (T216, 20 h, 10^6 cells per ml) it was 6.25 µg/mL (≈ 17.4 µM); in [9] it was 0.39 µg/mL (≈ 1.09 µM); in assay [10] (setting [25]), 25 µg/mL (≈ 69.8 µM); in [11] (S68, 20 h), 12.5 µg/mL (≈ 34.9 µM); in assay [12] it was 1.56 µg/mL (≈ 4.35 µM). In addition, the MIC is 0.39 µg/mL (≈ 1.09 µM) in assay [13]; 12.5 µg/mL (≈ 34.9 µM) in [14]; 12.5 µg/mL (≈ 34.9 µM) in [15] (GN3379, 20 h); 1.56 µg/mL (≈ 4.35 µM) in [16]; not above 0.05 µg/mL in assay [17]; 3.13 µg/mL (≈ 8.73 µM) in assay [18]. Moreover, in [19], the MIC stood at 3.13 µg/mL (≈ 8.73 µM).
